# Test results published in US20240116882A1, “NOVEL BENZOTRIAZOLE DERIVATIVE HAVING INHIBITORY ACTIVITY AGAINST ECTONUCLEOTIDE PYROPHOSPHATASE-PHOSPHODIESTERASE, AND USE THEREOF” (TXINNO BIOSCIENCE INC., priority 2021, published 2024).
# Structures can show the parent of a compound that is named as a salt.
# Biological target: T1, human recombinant ENPP1 enzymes (Homo sapiens, UniProt P22413)
# T1 construct: purchased R & D systems
# T1 sequence (P22413 1-925): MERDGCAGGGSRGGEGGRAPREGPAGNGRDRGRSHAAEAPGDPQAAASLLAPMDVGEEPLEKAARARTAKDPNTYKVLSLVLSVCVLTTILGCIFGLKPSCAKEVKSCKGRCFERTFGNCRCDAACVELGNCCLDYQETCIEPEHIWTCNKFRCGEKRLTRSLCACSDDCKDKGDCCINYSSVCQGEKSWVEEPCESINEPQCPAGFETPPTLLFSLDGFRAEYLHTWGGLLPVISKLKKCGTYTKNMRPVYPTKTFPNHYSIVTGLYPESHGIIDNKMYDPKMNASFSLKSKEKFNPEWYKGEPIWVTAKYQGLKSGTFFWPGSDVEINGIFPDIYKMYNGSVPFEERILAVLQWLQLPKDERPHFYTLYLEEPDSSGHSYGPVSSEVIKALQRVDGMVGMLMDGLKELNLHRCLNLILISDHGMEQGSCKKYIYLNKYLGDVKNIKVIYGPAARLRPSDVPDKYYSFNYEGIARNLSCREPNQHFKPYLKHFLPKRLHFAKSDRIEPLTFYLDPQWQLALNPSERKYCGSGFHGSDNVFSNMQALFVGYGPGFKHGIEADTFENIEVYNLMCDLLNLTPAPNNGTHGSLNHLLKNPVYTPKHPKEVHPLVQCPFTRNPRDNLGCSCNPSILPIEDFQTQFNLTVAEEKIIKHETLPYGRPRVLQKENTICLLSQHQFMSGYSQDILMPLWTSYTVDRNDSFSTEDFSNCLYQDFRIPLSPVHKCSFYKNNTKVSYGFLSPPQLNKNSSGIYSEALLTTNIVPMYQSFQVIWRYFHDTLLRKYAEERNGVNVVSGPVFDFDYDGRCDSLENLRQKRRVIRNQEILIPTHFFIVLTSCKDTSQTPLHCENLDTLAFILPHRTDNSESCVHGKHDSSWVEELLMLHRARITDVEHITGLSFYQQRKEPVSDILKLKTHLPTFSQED
# Experiment: ENPP1 Enzyme Assay with cGAMP Substrate (AMP-Glo)
# Type: biochemical
# Conditions: human recombinant ENPP1, cGAMP 5 μM, 37° C. 90 minutes, AMP-Glo luminescence; read-out: Enzymatic activity (IC50)
# Method: ENPP1 hydrolyzes nucleotides or nucleotide derivatives to produce nucleoside-5′-monophosphate and pyrophosphate. In addition, ENPP1 hydrolyzes 2′,3′-cGAMP to produce 5′-adenosine monophosphate (AMP) and 5′-guanosine monophosphate (GMP). AMP produced from the reaction is measured using the AMP-Glo® kit (Promega). The AMP-Glo® kit contains two reagents. The first reagent terminates the AMP-producing enzymatic reaction, removes ATP and converts the produced AMP into ADP. The second reagent converts ADP into ATP which is used to generate luminescence in the luciferase reaction. The amount of luminescence measured is proportional to the amount of AMP produced by ENPP1.
# The final reaction solution contains 50 mM Tris (pH 8.5) buffer, 250 mM NaCl, 0.5 mM CaCl2), 1 μM ZnCl2, 5% glycerol and 1% DMSO. Serially diluted ENPP1 inhibitors (typically in the range of 10 μM to 0.5 nM) were pre-stored with human recombinant ENPP1 enzymes (R & D systems) at 3 ng/reaction and room temperature (RT) for 5 to 10 minutes. The reaction was initiated by addition of cGAMP (at a final concentration of 5 μM) and reacted at 37° C. for 90 minutes. At the end of the reaction, 10 μl of the AMP-Glo first reagent was added to stop the reaction and the result was stored at room temperature for 1 hour. After storage, 20 μl of an AMP detection solution (a mixture of AMP-Glo II reagent and Kinase-Glo at a ratio of 1:100) was added and stored at room temperature for 1 hour. Luminescence signals were measured using a Victor® plate reader (Perkin Elmer). The maximal activity control (containing enzymes and substrates in the presence of 1% DMSO; MAX) and the minimal activity control (containing substrates and 1% DMSO; MIN) were evaluated simultaneously. In each experiment, serially diluted reference ENPP1 inhibitors were tested as well. IC50, indicating % residual activity versus compound concentration was determined by fitting inhibition curves using the 3-parameter analysis of GraphPad Prism® software. Serially diluted samples of one compound were tested two or more times and an average IC50 of each compound was calculated.
row,IC50,Structure (SMILES)
1,> 10 µM,CCOc1ccc2c(c1)nnn2-c1ccc(CN)cc1F [Example 19]
2,< 1 µM,"NS(=O)(=O)NCc1cc(F)c(-n2nnc3ccccc32)c(F)c1 [Example 58, N-(4-(1H-benzo[d][1,2,3]triazol-1-yl)-3,5-difluorobenzyl)sulfamide]"
3,> 10 µM,NCc1ccc(-n2nnc3cc(OCF)ccc32)c(F)c1 [Example 23]
4,> 10 µM,COc1ccc2c(c1)nnn2-c1ccc(P(=O)(O)O)cc1 [Example 118]
5,> 10 µM,"COc1ccc2c(c1)nnn2-c1ccc2c(c1)CN(S(N)(=O)=O)CCC2 [Example 98, 8-(5-methoxy-1H-benzo[d][1,2,3]triazol-1-yl)-1,3,4,5-tetrahydro-2H-benzo[c]azepine-2-sulfonamide]"
6,> 10 µM,"COc1cc2nnn(-c3ccc4c(c3)CNC4)c2cc1OC [Example 29, 1-(isoindolin-5-yl)-5,6-dimethoxy-1H-benzo[d][1,2,3]triazole Hydrochloride]"
7,> 10 µM,CC(F)(F)c1ccc2c(c1)nnn2-c1ccc(CN)cc1 [Example 21]
8,> 10 µM,"COc1ccc2c(c1)nnn2-c1ccc(C(=O)O)cc1F [Example 116, 3-fluoro-4-(5-methoxy-1H-benzo[d][1,2,3]triazol-1-yl)benzoic Acid]"
9,1 to 10 µM,"COc1ccc2nn(Cc3ccc(NS(N)(=O)=O)cc3)nc2c1 [Example 109, Hydrochloride]"
10,> 10 µM,"CCS(=O)(=O)NCc1ccc(-n2nnc3cc(OC)ccc32)c(F)c1 [Example 113, N-(3-fluoro-4-(5-methoxy-1H-benzo[d][1,2,3]triazol-1-yl)benzyl)ethanesulfonamide]"
11,< 1 µM,"COc1cc2nnn(-c3ccc(CNS(N)(=O)=O)cc3)c2cc1F [Example 92, N-(4-(6-fluoro-5-methoxy-1H-benzo[d][1,2,3]triazol-1-yl)benzyl)sulfamide]"
12,1 to 10 µM,"NS(=O)(=O)NCc1ccc(-n2nnc3ccccc32)cc1 [Example 46, N-(4-(1H-benzo[d][1,2,3]triazol-1-yl)benzyl)sulfamide]"
13,< 1 µM,"COc1ccc2c(c1)nnn2-c1ccc(CN(C)S(N)(=O)=O)cc1F [Example 81, N-(3-fluoro-4-(5-methoxy-1H-benzo[d][1,2,3]triazol-1-yl)benzyl)-N-methylsulfamide]"
14,< 1 µM,"COc1ccc2c(c1)nnn2-c1ccc([C@H](C)N)cc1 [Example 14, (S)-1-(4-(5-methoxy-1H-benzo[d][1,2,3]triazol-1-yl)phenyl)ethan-1-amine Hydrochloride]"
15,1 to 10 µM,"COc1cc(OC)c2nnn(-c3ccc(CN)cc3)c2c1 [Example 9, 4-(4,6-dimethoxy-1H-benzo[d][1,2,3]triazol-1-yl)phenyl)methanamine Hydrochloride]"
16,< 1 µM,NS(=O)(=O)NCc1ccc(-n2nnc3cc(OC(F)F)ccc32)c(F)c1 [Example 91]
17,< 1 µM,"COc1ccc2c(c1)nnn2-c1ccc(CCNS(N)(=O)=O)cc1 [Example 73, N-(4-(5-methoxy-1H-benzo[d][1,2,3]triazol-1-yl)phenethyl)sulfamide Hydrochloride]"
18,< 1 µM,"COc1ccc2c(c1)nnn2-c1ccc2c(c1)CN(S(N)(=O)=O)C2 [Example 94, 5-(5-methoxy-1H-benzo[d][1,2,3]triazol-1-yl)isoindoline-2-sulfonamide]"
19,> 10 µM,"COc1ccc2c(ccn2-c2ccc(CNS(N)(=O)=O)cc2)c1 [Example 122, N-(4-(5-methoxy-1H-indol-1-yl)benzyl)sulfamide]"

row,IC50,Structure (SMILES)
1,> 10 µM,COc1ccc2c(c1)nnn2-c1cc(F)c(CN)c(F)c1 [Example 18]
2,> 10 µM,"CC(C)Oc1ccc2c(c1)nnn2-c1ccc(CNS(N)(=O)=O)cc1F [Example 77, N-(3-fluoro-4-(5-isopropoxy-1H-benzo[d][1,2,3]triazol-1-yl)benzyl)sulfamide]"
3,1 to 10 µM,"COc1ccc2c(c1)nnn2CC1CCNCC1 [Example 3, 5-methoxy-1-(piperidin-4-ylmethyl)-1H-benzo[d][1,2,3]triazole]"
4,> 10 µM,NS(=O)(=O)NCc1ccc(-n2nnc3cc(OCF)ccc32)c(F)c1 [Example 88]
5,< 1 µM,"COc1ccc2c(c1)nnn2-c1ccc(CN(C2CC2)S(N)(=O)=O)cc1 [Example 82, N-cyclopropyl-N-(4-(5-methoxy-1H-benzo[d][1,2,3]triazol-1-yl)benzyl)sulfamide]"
6,< 1 µM,"COc1ccc2c(c1)nnn2-c1ccc(CNS(N)(=O)=O)c(F)c1F [Example 65, N-(2,3-difluoro-4-(5-methoxy-1H-benzo[d][1,2,3]triazol-1-yl)-benzyl)sulfamide]"
7,> 10 µM,"COc1ccc2c(c1)nnn2-c1ccc2c(c1)CNCCC2 [Example 27, 8-(5-methoxy-1H-benzo[d][1,2,3]triazol-1-yl)-2,3,4,5-tetrahydro-1H-benzo[c]azepine Hydrochloride]"
8,> 10 µM,"Cc1ccc2c(c1)nnn2-c1ccc(CNS(N)(=O)=O)cc1F [Example 75, N-(3-fluoro-4-(5-methyl-1H-benzo[d][1,2,3]triazol-1-yl)benzyl)sulfamide]"
9,< 1 µM,"COc1cccc2c1nnn2-c1ccc(CNS(N)(=O)=O)cc1 [Example 50, N-(4-(4-methoxy-1H-benzo[d][1,2,3]triazol-1-yl)benzyl)sulfamide]"
10,> 10 µM,"COc1ccc2c(c1)nnn2-c1ccc(CNS(N)(=O)=O)s1 [Example 106, N-((5-(5-methoxy-1H-benzo[d][1,2,3]triazol-1-yl)thiophen-2-yl)methyl)sulfamide]"
11,1 to 10 µM,"COc1ccc2c(c1)nnn2-c1cccc(NS(N)(=O)=O)c1 [Example 47, N-(3-(5-methoxy-1H-benzo[d][1,2,3]triazol-1-yl)phenyl)sulfamide]"
12,1 to 10 µM,"COc1ccc2c(c1)nnn2-c1cccc(CNS(N)(=O)=O)c1 [Example 49, N-(3-(5-methoxy-1H-benzo[d][1,2,3]triazol-1-yl)benzyl)sulfamide]"
13,< 1 µM,"COc1ccc2nnn(-c3ccc(CNS(N)(=O)=O)cc3)c2c1 [Example 52, N-(4-(6-methoxy-H-benzo[d][1,2,3]triazol-1-yl)benzyl)sulfamide]"
14,< 1 µM,"NS(=O)(=O)NCc1ccc(-n2nnc3ccccc32)c(F)c1F [Example 57, N-(4-(1H-benzo[d][1,2,3]triazol-1-yl)-2,3-difluorobenzyl)sulfamide]"
15,< 1 µM,"COc1ccc2c(c1)nnn2-c1c(F)cc(CNS(N)(=O)=O)cc1F [Example 64, N-(3,5-difluoro-4-(5-methoxy-1H-benzo[d][1,2,3]triazol-1-yl)-benzyl)sulfamide]"
16,< 1 µM,"COc1ccc2c(c1)nnn2-c1cccc(CCNS(N)(=O)=O)c1 [Example 72, N-(3-(5-methoxy-1H-benzo[d][1,2,3]triazol-1-yl)phenethyl)sulfamide]"
17,> 10 µM,COc1ccc2c(c1)nnn2-c1cc(F)c(CN)cc1F [Example 17]
18,< 1 µM,"NCc1ccc(-n2nnc3ccccc32)cc1 [Example 5, 4-(1H-benzo[d][1,2,3]triazol-1-yl)phenyl)methanamine Hydrochloride]"

row,Structure (SMILES),IC50
1,"COc1ccc2c(c1)nnn2C1CCN(CCS(=O)(=O)F)CC1 [Example 111, 2-(4-(5-methoxy-1H-benzo[d][1,2,3]triazol-1-yl)piperidin-1-yl)ethane-1-sulfonyl Fluoride]",> 10 µM
